Patent US9066912B2, “Drug-enhanced adhesion prevention” (Ethicon, Inc., priority 2003, dated 2015)
Values joined by “and” are separate entries in the source; they are usually repeats but may differ in a detail not shown here. Equal entries are not always repeated. “Also recorded” adds a separate entry of the source.

How the values were obtained:
[1] = system: adhesion formation after peritoneal surgery (sidewall injury); assay: Rabbit peritoneal sidewall adhesion model; type: in vivo; set-up: key to Adhesion Tenacity: 0: No adhesions; 1: mild, easily dissectible adhesions; 2: moderate adhesions; non-dissectible, does not tear organ; 3: dense adhesions; non-dissectible, tears when removed; details: for mean adhesion area percentage: placebo control 100±0; for Adhesion Area Percentage / Adhesion Tenacity: individual animals; for efficacy in reducing post-operative adhesions: summary of the examples
Procedure: Multiple studies to confirm the efficacy of Tranilast in the reduction or inhibition of adhesion formation after peritoneal surgery were performed using a sidewall adhesion model.
(§1) In the peritoneal sidewall model, rabbits were pre-anesthetized with 1.2 mg/kg acetylpromazine and anesthetized with a mixture of 55 mg/kg ketamine hydrochloride and 5 mg/kg xylazine intramuscularly. Following preparation for sterile surgery, a midline laparotomy was performed. A 3 cm×5 cm area of peritoneum and transversus abdominis muscle was removed on the right lateral abdominal wall. The cecum was exteriorized and digital pressure was exerted to create subserosal hemorrhages (trauma and loss of blood flow) over all cecal surfaces. The cecum was then returned to its normal anatomic position. Tranilast contained in a delivery vehicle as described below was placed in an Alzet® miniosmotic pump (Alza Corporation, Palo Alto, Calif.) to allow continuous release of the molecule through the postsurgical interval. The Alzet miniosmotic pump was placed in the subcutaneous space and a delivery tube connected the pump with the site of injury at the sidewall. Only the delivery vehicle was placed in the pump of control rabbits. The abdominal wall and skin were closed in a standardized manner.
After 21 days, the rabbits were sacrificed and the percentage of the area of the sidewall injury that was involved in adhesions was determined. In addition, the tenacity of the adhesion formed was scored using a system as follows:
With the sidewall model, an initial score to represent the overall extent of adhesions is given (0 to 3).
The percentage of a surface of the sidewall involved in adhesions to various organs are given in the tables below to quantify the overall adhesion score. A reduction in the area and the tenacity of the adhesions would be considered beneficial and efficacious.
The efficacy of Tranilast in inhibiting adhesion formation was evaluated using a single pump, filled with one of three dosage levels of mg of Tranilast per ml of delivery vehicle (0.625 mg/ml, 6.25 mg/ml or 62.5 mg/ml), or placebo control (70% Polyethylene glycol 400, 20% Tween 80, 10% N,N-dimethylacetamide (DMAC)). The drug was placed in an Alzet miniosmotic pump and delivered over 7 days at a rate of 10 microliter/hr. The animals were sacrificed after 21 days.
Following the procedure described in Example 1, Tranilast, at one of three dosage levels (0.625, 6.25 or 62.5 mg Tranilast/ml vehicle), and a placebo control (70% Polyethylene glycol 400, 20% Tween 80, 10% N,N-dimethylacetamide (DMAC)) was delivered over 7 days at a rate of 10 microliter/hr.
After 7 days, animals received anesthesia and a small incision was made in the skin after preparation for aseptic surgery. The pump was then replaced with a new pump and drug or placebo was delivered over a second period of 7 days at a rate of 10 microliter/hr.
After 7 more days, some of the animals received anesthesia and a second small incision was made in the skin after preparation for aseptic surgery. Again, the pump was replaced with another new pump and drug or placebo was delivered over a third period of 7 days at a rate of 10 microliter/hr.
All animals were sacrificed after 21 days.
Groups of animals received either oral dosing, or local delivery of Tranilast, or placebo control. In the animals that received local delivery, a single pump, filled with placebo (70% Polyethylene glycol 400, 20% Tween 80, 10% N,N-dimethylacetamide (DMAC)), or Tranilast (6.25 mg/ml), at 10 microliter/hour over 7 days starting with the day of surgery, was placed in the subcutaneous space. Certain animals received oral dosing (approximately 60 mg/kg). Oral dosing was either pre-operatively (once a day for the 5 days prior to surgery, with the last dose given 2 hours prior to surgery) or, in one group, pre- and post-operatively (from day 2 through day 21 post-surgery). For further clarification, the treatment groups are shown below.

[2] = Necropsy observations in the rabbit sidewall adhesion studies; type: in vivo; set-up: key to mild inflammation with granulomas (mark at adhesion tenacity): *: did have mild inflammation with the presence of granulomas; details: for mild inflammation with granulomas (mark at adhesion tenacity): individual animals, also seen in vehicle treated animals
Procedure: as §1
The animals whose adhesion tenacities are marked by (*) did have mild inflammation with the presence of granulomas. The variability in the results may be due to a localized inflammation in […]. As the response was present in the vehicle treated animals, the inflammatory response may be due to prolonged administration of this vehicle. Therefore, the efficacy results might have been underestimated in light of the possible presence of a prolonged inflammatory response.

[3] = system: TGF-β secretion, collagen synthesis, or cellular proliferation; details: any of the cellular assays tested to date, e.g. TGF-β secretion; cited from earlier work
[4] = Example 1, 0.625 mg/ml local via pump, 10 microliter/hr over 7 days, sacrifice after 21 days
[5] = Example 1, 6.25 mg/ml local via pump, 10 microliter/hr over 7 days, sacrifice after 21 days
[6] = Example 1, 62.5 mg/ml local via pump, 10 microliter/hr over 7 days, sacrifice after 21 days
[7] = Example 3, oral 60 mg/kg 5 days pre-operatively and 6.25 mg/ml topically (pump, 7 days), 60 mg/kg
[8] = Example 3, oral 60 mg/kg, 5 days pre-operatively and 21 days post-operatively, no pump
[9] = Example 2, 2 and 3 week local dosing
[10] = Example 3, oral and/or local dosing

COc1ccc(C=CC(=O)Nc2ccccc2C(=O)O)cc1OC [Tranilast, N-(3,4-dimethoxycinnamoyl) anthranilic acid]
mean adhesion area percentage ([1]; Example 1, 0.625 mg/ml local, 1 week dosing, p=0.078): 82.9±8.1%
mean adhesion area percentage ([1]; Example 1, 6.25 mg/ml local, 1 week dosing, p<0.001): 67.1±7.1%
mean adhesion area percentage ([1]; Example 1, 62.5 mg/ml local, 1 week dosing, p=0.065): 78.6±9.6%
tenacity of the adhesions formed (analysis of variance on the ranks) ([1]; Example 1, 1 week local dosing, all doses): significant reductions in the tenacity of the adhesions
area of adhesion formation relative to the control ([1]; Example 1, 1 week local dosing, all doses (0.625, 6.25, 62.5 mg/ml)): reduced the area of adhesion formation
Adhesion Area Percentage [1, 4]: 100% (4×) and 60% (3×)
Adhesion Tenacity [1, 4]: 2 (3×) and 1 (3×) and 3
Adhesion Area Percentage [1, 5]: 70% (2×) and 100% and 80% and 50% (3×)
Adhesion Tenacity [1, 5]: 1 (5×) and 2 (2×)
Adhesion Area Percentage [1, 6]: 100% (3×) and 70% (2×) and 30% and 80%
Adhesion Tenacity [1, 6]: 2 (3×) and 1 (3×) and 3
mean adhesion area percentage ([1]; Example 2, 0.625 mg/ml local, 2 weeks): 75.1±14.5%
mean adhesion area percentage ([1]; Example 2, 0.625 mg/ml local, 3 weeks): 48.6±8.8%
mean adhesion area percentage ([1]; Example 2, 6.25 mg/ml local, 2 weeks): 78.8±12.0%
mean adhesion area percentage ([1]; Example 2, 6.25 mg/ml local, 3 weeks): 77.1±12.1%
mean adhesion area percentage ([1]; Example 2, 62.5 mg/ml local, 2 weeks): 72.5±9.8%
mean adhesion area percentage ([1]; Example 2, 62.5 mg/ml local, 3 weeks): 64.3±10.9%
tenacity of the adhesions formed (analysis of variance on the ranks) ([1]; Example 2, 2 and 3 week local dosing, all doses): significant reductions in the tenacity of the adhesions
adhesion formation relative to placebo control ([1]; Example 2, 2 and 3 week local dosing, significant at the high dose at two weeks and at all doses at 3 weeks): reductions in adhesion formation at all doses of drug and at both time points
Adhesion Area Percentage ([1]; Example 2, 0.625 mg/ml local via pump for 2 weeks (pump replaced at day 7), sacrifice after 21 days): 50% and 100% (4×) and 80% and 0%
Adhesion Tenacity ([1]; Example 2, 0.625 mg/ml local via pump for 2 weeks, sacrifice after 21 days): 1 (5×) and 0 and 2
Adhesion Area Percentage ([1]; Example 2, 0.625 mg/ml local via pump for 3 weeks (pump replaced at days 7 and 14), sacrifice after 21 days): 10% and 50% (3×) and 80% and 30% and 70%
Adhesion Tenacity ([1]; Example 2, 0.625 mg/ml local via pump for 3 weeks, sacrifice after 21 days): 1 (6×) and 2
Adhesion Area Percentage ([1]; Example 2, 6.25 mg/ml local via pump for 2 weeks (pump replaced at day 7), sacrifice after 21 days): 100% (4×) and 70% and 0% and 80% (2×)
Adhesion Tenacity ([1]; Example 2, 6.25 mg/ml local via pump for 2 weeks, sacrifice after 21 days): 1 (6×) and 0 and 2
Adhesion Area Percentage ([1]; Example 2, 6.25 mg/ml local via pump for 3 weeks (pump replaced at days 7 and 14), sacrifice after 21 days): 70% and 100% (4×) and 20% and 50%
Adhesion Tenacity ([1]; Example 2, 6.25 mg/ml local via pump for 3 weeks, sacrifice after 21 days): 1 (5×) and 2 (2×)
Adhesion Area Percentage ([1]; Example 2, 62.5 mg/ml local via pump for 2 weeks (pump replaced at day 7), sacrifice after 21 days): 40% and 80% and 100% (3×) and 30% and 60% and 70%
Adhesion Tenacity ([1]; Example 2, 62.5 mg/ml local via pump for 2 weeks, sacrifice after 21 days): 1 (6×) and 2 (2×)
Adhesion Area Percentage ([1]; Example 2, 62.5 mg/ml local via pump for 3 weeks (pump replaced at days 7 and 14), sacrifice after 21 days): 50% (2×) and 40% and 30% and 100% (2×) and 80%
Adhesion Tenacity ([1]; Example 2, 62.5 mg/ml local via pump for 3 weeks, sacrifice after 21 days): 1 (6×) and 2
mean adhesion area percentage ([1]; Example 3, 6.25 mg/ml local only, p=0.039): 72.9±11.7%
tenacity of the adhesions formed (analysis of variance on the ranks) ([1]; Example 3, all groups of animals that received the drug): significant reductions in the tenacity of the adhesions
area of adhesion formation ([1]; Example 3, all groups that received local delivery (Tables 13 and 16)): reductions in the area of adhesion formation
Adhesion Tenacity ([1]; Example 3, 6.25 mg/ml local via pump over 7 days, no oral dosing): 1
Adhesion Area Percentage ([1]; Example 3, 6.25 mg/ml local via pump, 10 microliter/hour over 7 days, no oral dosing): 100% (2×) and 60% and 80% (3×) and 10%
Adhesion Area Percentage [1, 7]: 80% (2×) and 0% and 50% and 60% and 10%
Adhesion Tenacity [1, 7]: 1 (5×) and 0
Adhesion Area Percentage ([1]; Example 3, oral 60 mg/kg 5 days pre-operatively and placebo topically (pump)): 100%
Adhesion Tenacity ([1]; Example 3, oral 60 mg/kg 5 days pre-operatively and placebo topically (pump), 60 mg/kg): 2 (4×) and 1 (2×)
Adhesion Area Percentage [1, 8]: 100%
Adhesion Tenacity [1, 8]: 2
area of adhesion formation / inhibition of adhesion formation ([1]; Example 3, oral dosing alone, pre-operatively or pre- and post-operatively (Tables 14 and 15)): did not reduce the area of adhesion formation; also recorded: no inhibition of adhesion formation
mean adhesion area percentage ([1]; Example 3, oral pre-operative and post-operative, no local): 100±0%
mean adhesion area percentage ([1]; Example 3, oral pre-operative with topical 6.25 mg/ml, p=0.002): 46.7±14.1%
mean adhesion area percentage ([1]; Example 3, oral pre-operative with topical placebo): 100±0%
inhibition of adhesion formation ([1]; Example 3, pre-operative oral administration in conjunction with local administration): did result in inhibition of adhesion formation
efficacy in reducing post-operative adhesions ([1]; delivered to the site via a local administrative route): efficacious
efficacy in reducing post-operative adhesions ([1]; delivered via a systemic route): no efficacy was seen
clinical signs at necropsy ([2]; Example 1, 1 week local dosing): no clinical signs
inflammation or granulomas at the site of administration ([2]; Example 1, 1 week local dosing): no inflammation or granulomas were observed
clinical signs at necropsy [2, 9]: no clinical signs
inflammation or granulomas at the site of administration [2, 9]: no inflammation or granulomas were observed grossly at the site of administration in the majority of animals
mild inflammation with granulomas (mark at adhesion tenacity) ([2]; Example 2, 0.625 mg/ml local for 2 weeks): *
mild inflammation with granulomas (mark at adhesion tenacity) ([2]; Example 2, 6.25 mg/ml local for 2 weeks): *
mild inflammation with granulomas (mark at adhesion tenacity) ([2]; Example 2, 6.25 mg/ml local for 3 weeks): *
mild inflammation with granulomas (mark at adhesion tenacity) ([2]; Example 2, 62.5 mg/ml local for 2 weeks): *
mild inflammation with granulomas (mark at adhesion tenacity) ([2]; Example 2, 62.5 mg/ml local for 3 weeks): *
clinical signs at necropsy [2, 10]: no clinical signs
inflammation or granulomas at the site of administration [2, 10]: no inflammation or granulomas were observed
IC50 values in cellular assays [3]: does not exhibit potent IC50 values
